Reference: ChEMBL document CHEMBL1133002 (J Med Chem, 2000)
pKi: −log10 of the molar value.

How the values were obtained:
[1] = target: T1, Alpha-2C adrenergic receptor (Rattus norvegicus, UniProt P22086); test: in vitro alpha-2C adrenergic receptor binding assay from rats, using RX 821002 as the displaceable ligand
T1 sequence (P22086 whole entry): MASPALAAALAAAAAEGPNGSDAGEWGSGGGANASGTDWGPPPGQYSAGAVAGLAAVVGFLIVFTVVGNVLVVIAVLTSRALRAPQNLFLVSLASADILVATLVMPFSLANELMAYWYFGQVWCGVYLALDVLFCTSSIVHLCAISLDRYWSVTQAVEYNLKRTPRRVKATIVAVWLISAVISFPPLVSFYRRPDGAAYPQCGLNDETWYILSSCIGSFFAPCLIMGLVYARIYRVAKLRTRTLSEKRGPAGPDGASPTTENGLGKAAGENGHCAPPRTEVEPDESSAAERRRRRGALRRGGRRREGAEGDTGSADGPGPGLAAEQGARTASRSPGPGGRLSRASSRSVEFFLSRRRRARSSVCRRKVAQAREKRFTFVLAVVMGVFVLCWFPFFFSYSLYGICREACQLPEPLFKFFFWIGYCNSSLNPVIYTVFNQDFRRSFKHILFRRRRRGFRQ

[2] = target: T2, Alpha-2A adrenergic receptor (Rattus norvegicus, UniProt P22909); test: in vitro alpha-2A adrenergic receptor binding assay from rats, using RX 821002 as the displaceable ligand
T2 sequence (P22909 whole entry): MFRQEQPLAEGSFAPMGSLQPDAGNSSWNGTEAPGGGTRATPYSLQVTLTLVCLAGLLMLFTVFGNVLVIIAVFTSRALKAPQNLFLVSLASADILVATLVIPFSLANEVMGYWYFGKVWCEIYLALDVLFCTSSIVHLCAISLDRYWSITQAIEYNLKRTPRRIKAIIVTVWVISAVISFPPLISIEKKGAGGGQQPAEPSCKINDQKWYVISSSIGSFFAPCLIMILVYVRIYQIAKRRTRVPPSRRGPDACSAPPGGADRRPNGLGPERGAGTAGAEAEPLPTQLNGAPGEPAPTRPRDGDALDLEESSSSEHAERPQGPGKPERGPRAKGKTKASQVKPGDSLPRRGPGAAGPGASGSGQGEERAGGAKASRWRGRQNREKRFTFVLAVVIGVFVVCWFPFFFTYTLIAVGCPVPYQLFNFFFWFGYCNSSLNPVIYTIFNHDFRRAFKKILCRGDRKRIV

[3] = target: T3, Adrenergic receptor alpha-1 (Rattus norvegicus, UniProt P15823+P23944+P43140); test: in vitro alpha-1 adrenergic receptor binding assay from rats, using RX 821002 as the displaceable ligand; format: protein assay
T3 sequence (P15823 whole entry): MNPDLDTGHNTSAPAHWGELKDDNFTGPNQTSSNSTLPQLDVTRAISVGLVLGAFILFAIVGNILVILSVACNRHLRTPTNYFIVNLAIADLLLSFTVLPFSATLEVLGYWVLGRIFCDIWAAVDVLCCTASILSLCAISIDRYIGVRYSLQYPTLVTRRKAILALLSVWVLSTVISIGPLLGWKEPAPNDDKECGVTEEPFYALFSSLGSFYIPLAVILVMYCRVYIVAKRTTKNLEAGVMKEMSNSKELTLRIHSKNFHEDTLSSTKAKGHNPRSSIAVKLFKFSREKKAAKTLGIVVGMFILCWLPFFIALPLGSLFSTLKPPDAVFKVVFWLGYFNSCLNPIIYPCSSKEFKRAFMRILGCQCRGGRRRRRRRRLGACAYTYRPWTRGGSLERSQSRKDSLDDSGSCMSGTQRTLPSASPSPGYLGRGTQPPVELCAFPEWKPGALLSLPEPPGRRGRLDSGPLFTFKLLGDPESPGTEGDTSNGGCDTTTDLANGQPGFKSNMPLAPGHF
T3 sequence (P23944 whole entry): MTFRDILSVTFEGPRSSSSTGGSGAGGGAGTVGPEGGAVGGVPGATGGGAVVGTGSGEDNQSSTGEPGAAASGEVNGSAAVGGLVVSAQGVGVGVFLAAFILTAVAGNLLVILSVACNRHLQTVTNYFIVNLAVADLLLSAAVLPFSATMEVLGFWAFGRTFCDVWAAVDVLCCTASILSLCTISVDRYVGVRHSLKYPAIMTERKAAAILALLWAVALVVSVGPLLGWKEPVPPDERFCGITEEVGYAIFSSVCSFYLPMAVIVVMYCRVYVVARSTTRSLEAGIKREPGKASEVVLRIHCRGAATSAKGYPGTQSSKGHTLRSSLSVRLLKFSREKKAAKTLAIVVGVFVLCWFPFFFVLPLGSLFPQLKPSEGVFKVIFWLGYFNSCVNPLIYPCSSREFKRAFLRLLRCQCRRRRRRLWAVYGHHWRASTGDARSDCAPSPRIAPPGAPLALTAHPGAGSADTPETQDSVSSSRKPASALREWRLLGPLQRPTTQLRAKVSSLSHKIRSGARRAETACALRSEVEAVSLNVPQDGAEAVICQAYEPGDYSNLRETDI
T3 sequence (P43140 whole entry): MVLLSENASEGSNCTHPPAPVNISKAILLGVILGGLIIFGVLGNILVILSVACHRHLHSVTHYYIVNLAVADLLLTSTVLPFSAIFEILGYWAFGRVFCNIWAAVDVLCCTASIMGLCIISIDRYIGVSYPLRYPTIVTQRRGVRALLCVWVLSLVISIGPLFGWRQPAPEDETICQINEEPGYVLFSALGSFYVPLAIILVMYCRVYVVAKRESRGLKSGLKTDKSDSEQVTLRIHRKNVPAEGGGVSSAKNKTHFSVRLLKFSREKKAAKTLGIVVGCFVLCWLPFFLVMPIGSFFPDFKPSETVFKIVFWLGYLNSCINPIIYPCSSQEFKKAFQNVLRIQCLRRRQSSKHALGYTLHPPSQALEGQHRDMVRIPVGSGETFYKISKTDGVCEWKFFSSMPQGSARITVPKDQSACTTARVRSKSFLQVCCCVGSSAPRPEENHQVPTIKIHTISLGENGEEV

[4] = target: T4, Alpha-2B adrenergic receptor (Rattus norvegicus, UniProt P19328); test: in vitro alpha-2B adrenergic receptor binding assay from rats, using RX 821002 as the displaceable ligand
T4 sequence (P19328 whole entry): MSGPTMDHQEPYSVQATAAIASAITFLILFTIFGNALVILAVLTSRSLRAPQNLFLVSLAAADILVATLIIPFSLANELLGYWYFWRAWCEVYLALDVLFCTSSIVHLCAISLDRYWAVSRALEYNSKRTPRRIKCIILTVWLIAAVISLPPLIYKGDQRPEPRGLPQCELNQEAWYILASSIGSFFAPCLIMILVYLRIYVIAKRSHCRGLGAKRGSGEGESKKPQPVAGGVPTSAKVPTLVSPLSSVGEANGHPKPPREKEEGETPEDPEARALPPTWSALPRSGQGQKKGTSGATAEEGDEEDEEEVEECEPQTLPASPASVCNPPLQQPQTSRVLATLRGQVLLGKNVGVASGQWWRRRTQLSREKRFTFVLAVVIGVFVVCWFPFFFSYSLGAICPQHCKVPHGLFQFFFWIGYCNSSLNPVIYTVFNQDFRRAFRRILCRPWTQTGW

[5] = species on record: Rattus norvegicus; test: ED50 value was measured using rat air-induced abdominal irritant test(RAIT); format: functional; details: Abdomen
[6] = test system: Mus musculus; test: (§1) potential antinociceptive activity initially at a screening dose of 30 mg/kg po in the mouse abdominal irritant test(MAIT) using acetylcholine bromide as irritant; format: functional; details: Abdomen
[7] = target: T5, Alpha-2A adrenergic receptor (Rattus norvegicus) (UniProt P22909); test: % inhibition of alpha-2A adrenergic receptor binding at 1 uM
T5 sequence (whole entry): T2 sequence (P22909 whole entry)

[8] = target: T6, Alpha-2C adrenergic receptor (Rattus norvegicus) (UniProt P22086); test: % inhibition of alpha-2C adrenergic receptor binding at 1 uM
T6 sequence (whole entry): T1 sequence (P22086 whole entry)

[9] = species on record: Mus musculus; test: Peroral ED50 value was measured using mouse abdominal irritant test(MAIT); format: functional; details: Abdomen, po
[10] = species on record: Mus musculus; test: Peroral ED50 value was measured using mouse tail flick test; format: functional; details: po
[11] = species on record: Mus musculus; test: Peroral ED50 value was measured using mouse 48 degree hot plate test; format: functional; details: po
[12] = test system: Mus musculus; test: as §1; details: Abdomen, read-out: Inhibition

Structure (SMILES): c1nc(C2CCCc3sccc32)c[nH]1 (configuration not stated)
- pKi [1]: 6.76
- pKi [2]: 7.57
- pKi [3]: 6.96
- pKi [4]: 7.00
- ED50 [5]: 0.9 mg/kg
- inhibition in vivo at 30 mg/kg [6]: 100%

Structure (SMILES): c1nc(C2CCCc3ccsc32)c[nH]1 (configuration not stated)
- pKi [3]: 7.04
- inhibition [7]: 87%
- inhibition [8]: 54%
- inhibition in vivo at 30 mg/kg [6]: 73%

Structure (SMILES): C1=C(c2c[nH]cn2)c2ccsc2CC1
- pKi [2]: 6.60
- ED50 [9]: 11.6 mg/kg
- ED50 [10]: 100 mg/kg
- pKi [3]: 6.35
- pKi [4]: 6.21
- ED50 [11]: 25.9 mg/kg
- ED50 [5]: 15.1 mg/kg
- inhibition in vivo at 30 mg/kg [6]: 100%

Structure (SMILES): Cc1cccc([C@H](C)c2cnc[nH]2)c1C [DEXMEDETOMIDINE]
- pKi [2]: 8.30
- inhibition in vivo at 30 mg/kg [12]: 0.09%
- ED50 [5]: 0.12 mg/kg

Structure (SMILES): Clc1cccc(Cl)c1NC1=NCCN1 [CLONIDINE]
- ED50 [5]: 0.1 mg/kg
- inhibition in vivo at 30 mg/kg [6]: 0.05%

Structure (SMILES): Cc1sc(C)c2c1CCC=C2c1c[nH]cn1
- pKi [1]: 7.59
- pKi [2]: 7.60
- pKi [3]: 6.96
- pKi [4]: 7.00
- inhibition in vivo at 30 mg/kg [6]: 40%

Structure (SMILES): C1=C(c2c[nH]cn2)c2sccc2CC1
- pKi [2]: 6.65
- pKi [3]: 6.40
- pKi [4]: 6.03
- inhibition in vivo at 30 mg/kg [6]: 60%

Structure (SMILES): c1cc(-c2c[nH]cn2)c2ccsc2c1
- pKi [2]: 6.56
- pKi [3]: 6.46
- pKi [4]: 6.18
- inhibition in vivo at 30 mg/kg [6]: 60%

Structure (SMILES): Cc1sc(C)c2c1CCCC2c1c[nH]cn1 (configuration not stated)
- pKi [1]: 6.69
- pKi [2]: 7.17
- pKi [3]: 7.32
- pKi [4]: 6.85
- ED50 [5]: 7.9 mg/kg
- inhibition in vivo at 30 mg/kg [6]: 93%
